In article PMC9588780, “Purification and structural characterization of the Na^+-translocating ferredoxin: NAD^+ reductase (Rnf) complex of Clostridium tetanomorphum” (Nature Communications, 2022):

How the values were obtained:
[1] = target: T1, Rnf complex (RnfABCDEG), RnfC site (Clostridium tetanomorphum, UniProt A0A923IZ11); assay: NADH oxidation, hexacyanoferrate(III) reduction at […] nm; type: biochemical; conditions: 200 µM NADH, 100 µM hexacyanoferrate(III), 150 mM NaCl, 50 mM potassium phosphate pH 7.5, 0.05% DDM, room temperature, anaerobic
T1 construct: gene rsxC; native six-subunit membrane complex purified from C. tetanomorphum in DDM (MSP1D1/DMPC nanodisc for cryo-EM); RnfC 1-435, 47 kDa; complex ca. 200-250 kDa; with Ion-translocating oxidoreductase complex subunit A; Ion-translocating oxidoreductase complex subunit B; Ion-translocating oxidoreductase complex subunit D; Ion-translocating oxidoreductase complex subunit E; Ion-translocating oxidoreductase complex subunit G
T1 sequence (A0A923IZ11 1-435, one chain of several): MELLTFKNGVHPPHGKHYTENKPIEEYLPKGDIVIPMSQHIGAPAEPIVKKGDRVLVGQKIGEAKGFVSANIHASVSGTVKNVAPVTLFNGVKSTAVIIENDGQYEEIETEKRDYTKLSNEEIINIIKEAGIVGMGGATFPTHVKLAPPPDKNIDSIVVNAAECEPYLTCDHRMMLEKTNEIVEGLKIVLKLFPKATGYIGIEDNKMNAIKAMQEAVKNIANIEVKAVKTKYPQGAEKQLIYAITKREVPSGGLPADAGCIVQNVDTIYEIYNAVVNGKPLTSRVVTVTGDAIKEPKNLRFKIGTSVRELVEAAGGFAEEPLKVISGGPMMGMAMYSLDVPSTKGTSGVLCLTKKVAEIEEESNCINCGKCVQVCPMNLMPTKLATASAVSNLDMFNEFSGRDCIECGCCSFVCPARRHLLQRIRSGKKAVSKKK
T1 sequence (A0A923J0P9 1-191 partner, one chain of several): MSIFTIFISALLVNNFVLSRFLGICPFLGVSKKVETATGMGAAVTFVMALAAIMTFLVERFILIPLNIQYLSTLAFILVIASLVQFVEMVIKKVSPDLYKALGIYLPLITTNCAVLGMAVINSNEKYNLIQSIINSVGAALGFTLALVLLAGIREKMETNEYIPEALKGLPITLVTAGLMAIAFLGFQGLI
T1 sequence (A0A923IZB8 1-202 partner, one chain of several): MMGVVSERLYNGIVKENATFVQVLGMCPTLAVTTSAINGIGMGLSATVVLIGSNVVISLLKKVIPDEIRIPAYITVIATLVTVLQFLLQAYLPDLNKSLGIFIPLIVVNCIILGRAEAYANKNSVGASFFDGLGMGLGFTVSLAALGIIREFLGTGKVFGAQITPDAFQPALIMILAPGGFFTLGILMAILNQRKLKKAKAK
T1 sequence (A0A923J084 1-189 partner, one chain of several): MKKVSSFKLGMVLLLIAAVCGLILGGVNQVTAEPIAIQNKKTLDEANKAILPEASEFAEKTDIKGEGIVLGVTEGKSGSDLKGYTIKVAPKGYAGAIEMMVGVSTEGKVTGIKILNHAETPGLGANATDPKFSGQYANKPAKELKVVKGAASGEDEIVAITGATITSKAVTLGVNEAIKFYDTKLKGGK

[2] = target: T2, Rnf complex (RnfABCDEG), RnfD site (Clostridium tetanomorphum, UniProt A0A923IYK2); assay: cryo-EM structure ([…] Å); type: binding
T2 construct: native six-subunit membrane complex purified from C. tetanomorphum, in MSP1D1/DMPC nanodisc; RnfD 33 kDa; with Ion-translocating oxidoreductase complex subunit A; Ion-translocating oxidoreductase complex subunit B; Ion-translocating oxidoreductase complex subunit C; Ion-translocating oxidoreductase complex subunit E; Ion-translocating oxidoreductase complex subunit G
T2 sequence (A0A923IZ11 1-435 partner, one chain of several): as the sequence (A0A923IZ11 1-435, one chain of several) above
T2 sequence (A0A923J0P9 1-191 partner, one chain of several): as the sequence (A0A923J0P9 1-191 partner, one chain of several) above
T2 sequence (A0A923IZB8 1-202 partner, one chain of several): as the sequence (A0A923IZB8 1-202 partner, one chain of several) above
T2 sequence (A0A923J084 1-189 partner, one chain of several): as the sequence (A0A923J084 1-189 partner, one chain of several) above

[3] = target: T3, Rnf complex (RnfABCDEG), RnfG site (Clostridium tetanomorphum, UniProt A0A923J084); assay: cryo-EM structure ([…] Å); UV fluorescence on SDS-PAGE; type: binding; conditions: covalent; phosphoester to Thr164 of RnfG
T3 construct: native six-subunit membrane complex purified from C. tetanomorphum, in MSP1D1/DMPC nanodisc; RnfG 20 kDa; with Ion-translocating oxidoreductase complex subunit A; Ion-translocating oxidoreductase complex subunit B; Ion-translocating oxidoreductase complex subunit C; Ion-translocating oxidoreductase complex subunit D; Ion-translocating oxidoreductase complex subunit E
T3 sequence (A0A923J084 1-189, one chain of several): as the sequence (A0A923J084 1-189 partner, one chain of several) above
T3 sequence (A0A923J0P9 1-191 partner, one chain of several): as the sequence (A0A923J0P9 1-191 partner, one chain of several) above
T3 sequence (A0A923IZB8 1-202 partner, one chain of several): as the sequence (A0A923IZB8 1-202 partner, one chain of several) above
T3 sequence (A0A923IZ11 1-435 partner, one chain of several): as the sequence (A0A923IZ11 1-435, one chain of several) above

[4] = target: T1, Rnf complex (RnfABCDEG), RnfC site; assay: coupled enzyme assay with Etf/butyryl-CoA dehydrogenase, […] nm; type: biochemical; conditions: reduced ferredoxin as electron donor (50 µM Fd), crotonyl-CoA, room temperature
[5] = target: T4, RnfD subunit of the Na+-translocating ferredoxin:NAD+ reductase (Rnf) complex of Clostridium tetanomorphum (Clostridium tetanomorphum (endogenous …, UniProt A0A923IYK2 1-310, FMN covalently attached by its phospho group to the Thr153 hydroxy group)); assay: cryo-EM structure; native Rnf complex of C. tetanomorphum reconstituted into a DMPC-filled MSP1D1 nanodisc; grids prepared in an anaerobic tent (95% N2, 5% H2); 88,423 particles, overall resolution 4.27 Å; conditions: both partners purified
T4 construct: native subunit of the purified Rnf complex; Also holds a riboflavin
T4 sequence (looked up): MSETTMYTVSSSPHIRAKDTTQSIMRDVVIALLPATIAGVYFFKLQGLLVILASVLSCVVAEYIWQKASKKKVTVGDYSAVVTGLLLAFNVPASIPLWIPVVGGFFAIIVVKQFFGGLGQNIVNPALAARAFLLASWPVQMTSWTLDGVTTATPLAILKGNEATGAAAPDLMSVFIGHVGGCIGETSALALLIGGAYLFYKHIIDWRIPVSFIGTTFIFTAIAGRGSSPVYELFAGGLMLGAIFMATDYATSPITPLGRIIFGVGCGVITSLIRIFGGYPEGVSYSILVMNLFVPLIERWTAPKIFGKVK

NC(=O)C1=CN([C@@H]2O[C@H](COP(=O)(O)OP(=O)(O)OC[C@H]3O[C@@H](n4cnc5c(N)ncnc54)[C@H](O)[C@@H]3O)[C@@H](O)[C@H]2O)C=CC1 [NADH]
NADH oxidation, hexacyanoferrate(III) reduction at 420 nm [1]: using hexacyanoferrate(III) as electron acceptor for NADH oxidation

Cc1cc2nc3c(=O)[nH]c(=O)nc-3n(C[C@H](O)[C@H](O)[C@H](O)CO)c2cc1C [RBF, riboflavin]
cryo-EM structure (4.27 Å) ([2]; cytoplasmic half-channel pocket of RnfD near Asn124 and Asp248, density assigned with help of A. vinelandii Rnf structure): the density becomes interpretable as riboflavin

Cc1cc2nc3c(=O)[nH]c(=O)nc-3n(C[C@H](O)[C@H](O)[C@H](O)COP(=O)(O)O)c2cc1C [FMN]
cryo-EM structure (4.27 Å); UV fluorescence on SDS-PAGE [3]: FMN is covalently attached via its phospho group to the conserved Thr164
cryo-EM structure (4.27 Å) ([2]; covalent, phosphoester to Thr153 of RnfD (covalent FMN seen in structure; RnfD band not detected by UV on SDS-PAGE)): The phospho group of FMNRnfD is covalently attached to the well-conserved Thr153 hydroxy group

NC(=O)c1ccc[n+]([C@@H]2O[C@H](COP(=O)(O)OP(=O)(O)OC[C@H]3O[C@@H](n4cnc5c(N)ncnc54)[C@H](O)[C@@H]3O)[C@@H](O)[C@H]2O)c1 [NAD^+]
coupled enzyme assay with Etf/butyryl-CoA dehydrogenase, 340 nm [4]: The biological relevant NAD^+ reduction with Fdred was determined with a coupled enzyme assay

B1: RnfB subunit of the Na+-translocating ferredoxin:NAD+ reductase (Rnf) complex of Clostridium tetanomorphum (natural protein, UniProt A0A923E755 1-274, looked up)
chain: MEGLLFPVLSLGGLGVVFGLLLGYASKKFAVEVDERVPMVRAALPGANCGGCGFAGCDAYADAVVNAGAKPNGCPVGGAACAAKIAEIMGVVVDSSEPKKAYVKCQGTCDKAKEKYEYYGAMTCVDAANIPGAGSKTCGFGCLGLGSCVQVCAFDAIHVENGIAVVDEEACTGCGACVSICPKSVIELTPMSKKVRISCNSHDKGIEVKNACSVGCLSCGLCVRNCPSEAITMVNNLPVIDYDKCTQCGVCVGKCPTKAIVNLNTNVSKEASNN
notes: native subunit of the purified Rnf complex; Carries five reliably identified [4Fe-4S] clusters; a sixth in FdI is held likely; also called ferredoxin subunit RnfB
binding result [5]: binds
